Results as given in patent publication US8138220B2, “[2-(6-fluoro-1H-indol-3-ylsulfanyl)benzyl]methyl amine for the treatment of affective disorders” (H. Lundbeck A/S, priority 2006, dated 2012).
Where “and” joins values, the source holds several entries; their conditions need not be identical. Equal values may be shown once.

Legend:
[1] = system: Rats; assay: Impact on sleep architecture, EEG/EMG in rats; format: in vivo, rat; conditions: for % of time spent in REM / % of time spent in SWS / % of time spent in Wake: second hour of recording; for sleep latency: time from injection until first consolidated sleeping episode
Procedure: Rats were implanted with EEG and EMG electrodes to monitor the brain electrical activity and the muscle electrical activity, respectively. The electrodes were connected to a radio transmitter allowing a continuous collection of activity data from freely moving, undisturbed and home-caged animals. The EEG and EMG data were visually scored to determine the arousal states wake, SWS and REM sleep. A group of 10 rats were administered vehicle or the compound of the present invention corresponding to 0.4 mg/kg and 4 mg/kg of the free base. A William's square cross over design was applied so that each animal receives each treatment once.

[2] = target: T1, 5-HT2A receptors (Homo sapiens, UniProt P28223); assay: 5-HT2A functional assay, 5-HT evoked Ca2+ release in CHO cells (FLIPR)
T1 sequence (P28223 whole entry): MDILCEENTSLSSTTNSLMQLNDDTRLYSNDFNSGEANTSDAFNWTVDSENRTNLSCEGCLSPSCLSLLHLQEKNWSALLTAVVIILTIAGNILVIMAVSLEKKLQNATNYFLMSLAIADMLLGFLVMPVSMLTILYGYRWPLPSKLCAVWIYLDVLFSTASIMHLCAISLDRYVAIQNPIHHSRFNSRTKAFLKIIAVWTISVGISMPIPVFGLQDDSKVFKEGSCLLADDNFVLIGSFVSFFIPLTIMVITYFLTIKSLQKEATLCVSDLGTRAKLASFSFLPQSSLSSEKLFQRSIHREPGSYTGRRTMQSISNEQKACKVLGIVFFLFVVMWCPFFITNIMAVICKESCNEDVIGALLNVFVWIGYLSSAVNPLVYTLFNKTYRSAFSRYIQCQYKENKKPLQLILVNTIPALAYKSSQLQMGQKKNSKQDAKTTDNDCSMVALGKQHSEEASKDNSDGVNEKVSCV
Procedure: The experiment was carried out as follows. 2 or 3 days before the experiment CHO cells expressing approximately 250 fmol/mg 5-HT2A receptors are plated at a density sufficient to yield a mono-confluent layer on the day of the experiment. […] Lacer intensity was set to a suitable level to obtain basal values of approximately 8000-10000 fluorescence units. The variation in basal fluorescence should be less than 10%. […] Test substances are added to the cells 5 minutes before the 5-HT.

[3] = target: T1, 5-HT2A receptors; assay: 5-HT2A receptor affinity (MDL Pharmaservices catalogue number 271650); format: binding; set-up: purchased MDL Pharmaservices 271650; conditions: Cheng Prusoff from IC50, 5 concentrations
Procedure: 5 concentration of compound (1, 10, 30, 100, 1000 nM) were used to calculate the IC50 value. Ki was calculated from the Cheng Prusoff equation Ki=(IC50/(1+([L]/Kd)) Affinity was determined at MDL Pharmaservices catalogue number 271650.

[4] = target: T2, α1A receptor (Homo sapiens, UniProt P35348); assay: α1A receptor affinity, [3H]-Prazosin binding to membranes; conditions: Cheng Prusoff
T2 construct: expressed in transfected cells
T2 sequence (P35348 1-466): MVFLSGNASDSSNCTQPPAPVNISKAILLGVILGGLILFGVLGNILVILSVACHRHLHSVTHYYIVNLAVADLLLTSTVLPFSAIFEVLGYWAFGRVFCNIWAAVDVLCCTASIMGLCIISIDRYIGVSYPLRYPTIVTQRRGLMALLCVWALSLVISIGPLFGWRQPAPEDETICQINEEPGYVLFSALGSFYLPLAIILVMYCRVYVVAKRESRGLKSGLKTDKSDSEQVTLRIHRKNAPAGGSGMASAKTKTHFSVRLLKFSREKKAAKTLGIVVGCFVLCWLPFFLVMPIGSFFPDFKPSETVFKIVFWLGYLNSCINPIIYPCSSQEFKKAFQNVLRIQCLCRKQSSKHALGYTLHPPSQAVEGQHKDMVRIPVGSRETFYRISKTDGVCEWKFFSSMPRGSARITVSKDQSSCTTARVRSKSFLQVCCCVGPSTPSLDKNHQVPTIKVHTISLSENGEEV
Procedure: On the day of the experiments membranes (see below for description of membrane preparation) are thawed and homogenized in buffer using an ultra turrax and diluted to the desired concentration (5 μg/well˜5 μg/900 μl, store on ice until use).
The experiment is initiated by mixing of 50 μl test compound, 50 μl [^3H]-Prazosin and 900 μl membranes, and the mixture is incubated for 20 minutes at 25° C. Non-specific binding is determined in the presence of 10 μM WB-4101 and the total binding is determined in the presence of buffer. After the incubation, bound ligand is separated from unbound by filtration through Unifilter GF/B, presoaked in 0.1% PEI for 30 minutes, using a Tomtec Cell Harvester program (D4.2 . . . 4) 96 well. Filters are washed 3 times with 1 ml ice-cold buffer, dried at 50° C. and 35 μl scintillation liquid/well is added to the filters. Bound radioactivity is counted in a Wallac OY 1450 MicroBeta. The affinity (Ki 10 nM) is calculated from Y=100/(1+10^(X-logIC50^)) where Y denotes % binding and X denotes the concentration of compound. […] Ki was calculated from the Cheng Prusoff equation Ki=(IC50/(1+([L]/Kd))
Cells were grown to 95% confluence, washed twice with buffer (50 mM Tris pH 7.7, 125 mM NaCl) and detached by scraping in a volume of 10 ml buffer/160 cm^2. […] Protein concentration was measured with BCA™ (Pierce #23223+23224).

[5] = target: T3, noradrenalin reuptake (Rattus norvegicus, UniProt Q63380); assay: Noradrenalin transport inhibition, [3H]NE uptake in rat cortical synaptosomes; format: biochemical; conditions: [3H]NE 10 nM
T3 construct: rat cortical synaptosome preparation; from tissue; host or cells: rat cortical synaptosomes
T3 sequence (Q63380 1-617): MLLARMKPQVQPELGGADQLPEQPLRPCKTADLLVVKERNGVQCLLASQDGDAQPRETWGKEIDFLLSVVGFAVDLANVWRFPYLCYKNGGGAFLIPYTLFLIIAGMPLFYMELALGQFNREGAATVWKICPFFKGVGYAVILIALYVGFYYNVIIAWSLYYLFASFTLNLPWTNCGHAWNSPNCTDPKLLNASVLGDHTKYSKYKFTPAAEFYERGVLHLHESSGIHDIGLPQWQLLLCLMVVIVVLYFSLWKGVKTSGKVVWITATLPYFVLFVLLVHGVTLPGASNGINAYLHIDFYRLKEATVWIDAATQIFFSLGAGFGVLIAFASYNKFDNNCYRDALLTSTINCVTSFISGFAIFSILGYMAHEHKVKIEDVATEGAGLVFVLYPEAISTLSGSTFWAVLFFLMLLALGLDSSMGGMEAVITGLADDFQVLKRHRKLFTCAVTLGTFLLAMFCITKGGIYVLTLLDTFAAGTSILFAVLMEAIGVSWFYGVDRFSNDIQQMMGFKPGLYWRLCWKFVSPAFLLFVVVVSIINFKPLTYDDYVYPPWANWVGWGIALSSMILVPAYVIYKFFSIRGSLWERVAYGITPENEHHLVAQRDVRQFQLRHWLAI
Procedure: (§1) Aliquots of test compound and rat cortical synaptosome preparation were pre-incubated for 10 min/37° C., and then added [^3H]NE or [^3H]5-HT (final concentration 10 nM). Non-specific uptake was determined in the presence of 10 μM talsupram or citalopram and the total uptake was determined in the presence of buffer. Aliquots were incubated for 15 minutes at 37° C. After the incubation [^3H]NE or [^3H]5-HT taken up by synaptosomes was separated by filtration through Unifilter GF/C, presoaked in 0.1% PEI for 30 minutes, using a Tomtec CellHarvester program. Filters were washed and counted in a Wallac MicroBeta counter.

[6] = system: telemeterised Beagle dogs; assay: Effect on blood pressure in telemeterised Beagle dogs; format: in vivo, dog
Procedure: The cardiovascular effects of compounds of the present invention were investigated in telemeterised Beagle dogs in the doses 0.25, 0.50 and 1.0 mg/kg given by gavage. Amount of compound is calculated as the free base. Six dogs were used in the experiment, three males and three females.

[7] = target: T4, serotonin reuptake (Rattus norvegicus, UniProt P31652); assay: Serotonin transport inhibition, [3H]5-HT uptake in rat cortical synaptosomes; format: biochemical; conditions: [3H]5-HT 10 nM
T4 construct: rat cortical synaptosome preparation; from tissue; host or cells: rat cortical synaptosomes
T4 sequence (P31652 whole entry): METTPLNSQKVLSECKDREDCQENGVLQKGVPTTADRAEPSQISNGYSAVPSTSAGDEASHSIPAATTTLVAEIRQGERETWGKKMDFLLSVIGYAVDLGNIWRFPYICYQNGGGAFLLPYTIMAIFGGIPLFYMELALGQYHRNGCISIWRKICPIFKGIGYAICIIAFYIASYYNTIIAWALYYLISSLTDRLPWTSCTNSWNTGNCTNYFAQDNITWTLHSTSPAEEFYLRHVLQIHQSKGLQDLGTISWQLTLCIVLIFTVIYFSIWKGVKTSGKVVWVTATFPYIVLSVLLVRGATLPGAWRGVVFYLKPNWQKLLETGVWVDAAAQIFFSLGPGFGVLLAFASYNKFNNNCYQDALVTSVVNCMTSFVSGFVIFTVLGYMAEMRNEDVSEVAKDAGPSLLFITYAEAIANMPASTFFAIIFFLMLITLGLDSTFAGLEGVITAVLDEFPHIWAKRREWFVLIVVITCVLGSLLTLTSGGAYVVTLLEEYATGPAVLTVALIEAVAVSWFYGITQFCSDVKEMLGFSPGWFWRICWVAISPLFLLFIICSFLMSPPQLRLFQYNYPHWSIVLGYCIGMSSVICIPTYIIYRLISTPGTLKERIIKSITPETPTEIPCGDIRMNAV
Procedure: as §1

CNCc1ccccc1Sc1c[nH]c2cc(F)ccc12 [compounds of the present invention, [2-(6-fluoro-1H-indol-3-ylsulfanyl)benzyl]methyl amine]
% of time spent in REM ([1]; 0.4 mg/kg free base): 0.00% | % of time spent in SWS ([1]; 0.4 mg/kg free base): 62.08% | % of time spent in Wake ([1]; 0.4 mg/kg free base): 37.92% | sleep latency ([1]; 0.4 mg/kg): 26.43 min | % of time spent in REM ([1]; 4.0 mg/kg free base): 0.00% | % of time spent in SWS ([1]; 4.0 mg/kg free base): 69.97% | % of time spent in Wake ([1]; 4.0 mg/kg free base): 30.03% | sleep latency ([1]; 4.0 mg/kg): 20.62 min | Kb [2]: 130 nM | pA2 ([2]; schild analysis, CHO cells expressing 5-HT2A, 5-HT curves with 150, 400, 1500, 4000 nM compound): 6.88 | Ki [3]: 14 nM | Ki [4]: 14 nM and 10 nM | IC50 [5]: 4.4 nM | Systolic arterial blood pressure (Change from baseline (mean ± SD)) (10-380 min) ([6]; 0.25 mg/kg by gavage): −4.26 ± 5.98 | Systolic left ventricular pressure (Change from baseline (mean ± SD)) Post-dose period I (10-380 min) ([6]; 0.25 mg/kg by gavage): −3.82 ± 3.42^♀ | Systolic arterial blood pressure (Change from baseline (mean ± SD)) (10-380 min) ([6]; 0.50 mg/kg by gavage): −9.77 ± 5.39 | Systolic left ventricular pressure (Change from baseline (mean ± SD)) Post-dose period I (10-380 min) ([6]; 0.50 mg/kg by gavage): −11.13 ± 4.05^♂♀ | Systolic arterial blood pressure (Change from baseline (mean ± SD)) (10-380 min) ([6]; 1.00 mg/kg by gavage): −6.30 ± 6.63 | Systolic left ventricular pressure (Change from baseline (mean ± SD)) Post-dose period I (10-380 min) ([6]; 1.00 mg/kg by gavage): −3.08 ± 5.37^♂,♀ | IC50 [7]: 0.4 nM
